Entries after “also recorded” stand apart in the source; their conditions may differ. Read-outs that look alike come from different tables or passages of the source.
Key:
intact hearts = conditions: Paucek et al. 1997; cited from earlier work
[1] = test system: mitochondria of ventricular myocytes; format: cell-based, rabbit; conditions: sequential exposure diazoxide, DNP, CN; FIG. 8
Procedure: In the following Examples, Confocal images were obtained using a Diaphot 300 inverted fluorescence microscope with a PCM-2000 confocal scanning attachment (Nikon, Inc.). Fluorescence was excited by the 488 nm line of an argon laser and the emission at 505-535 nm was recorded. A time series of images was collected at intervals of ˜10 sec and baseline, diazoxide, DNP and CN images were enhanced by averaging 8-10 sequential images having stable mean fluorescence intensities during the exposure to each agent.
To localize mitochondria, cells were loaded with 100 nM TMRE, which distributes into negatively charged cellular compartments, for 10 min., (Lemasters, J. J., et al., “Measurement of electrical potential, pH, and free calcium ion concentration in mitochondria of living cells by laser scanning confocal microscopy”, in Anonymous: Methods in Enzymology., New York, Academic Press, 1995, pp 429-417). TMRE fluorescence was excited with the 535 nm line of a helium neon laser and recorded at greater than 605 nm. A pseudocolor palette was applied to visualize the relative increase in mitochondrial flavoprotein oxidation state.
Images were analyzed on a personal computer using the software program ImageTool (University of Texas Health Sciences Center in San Antonio). All the recordings were performed at room temperature (21-22° C.).

[2] = biological target: T1, sarcolemmal KATP channels (Oryctolagus cuniculus, UniProt O02822+P82451); assay: Whole-cell patch recording of sarcolemmal KATP current (IKATP); format: cell-based, rabbit; conditions: for activation of IKATP: treatment with diazoxide and 5-HD, FIG. 4
T1 construct: ventricular myocytes were isolated from adult rabbit hearts by conventional enzymatic dissociation; endogenous in cells; host or cells: primary adult rabbit ventricular myocytes
T1 sequence (P82451 whole entry): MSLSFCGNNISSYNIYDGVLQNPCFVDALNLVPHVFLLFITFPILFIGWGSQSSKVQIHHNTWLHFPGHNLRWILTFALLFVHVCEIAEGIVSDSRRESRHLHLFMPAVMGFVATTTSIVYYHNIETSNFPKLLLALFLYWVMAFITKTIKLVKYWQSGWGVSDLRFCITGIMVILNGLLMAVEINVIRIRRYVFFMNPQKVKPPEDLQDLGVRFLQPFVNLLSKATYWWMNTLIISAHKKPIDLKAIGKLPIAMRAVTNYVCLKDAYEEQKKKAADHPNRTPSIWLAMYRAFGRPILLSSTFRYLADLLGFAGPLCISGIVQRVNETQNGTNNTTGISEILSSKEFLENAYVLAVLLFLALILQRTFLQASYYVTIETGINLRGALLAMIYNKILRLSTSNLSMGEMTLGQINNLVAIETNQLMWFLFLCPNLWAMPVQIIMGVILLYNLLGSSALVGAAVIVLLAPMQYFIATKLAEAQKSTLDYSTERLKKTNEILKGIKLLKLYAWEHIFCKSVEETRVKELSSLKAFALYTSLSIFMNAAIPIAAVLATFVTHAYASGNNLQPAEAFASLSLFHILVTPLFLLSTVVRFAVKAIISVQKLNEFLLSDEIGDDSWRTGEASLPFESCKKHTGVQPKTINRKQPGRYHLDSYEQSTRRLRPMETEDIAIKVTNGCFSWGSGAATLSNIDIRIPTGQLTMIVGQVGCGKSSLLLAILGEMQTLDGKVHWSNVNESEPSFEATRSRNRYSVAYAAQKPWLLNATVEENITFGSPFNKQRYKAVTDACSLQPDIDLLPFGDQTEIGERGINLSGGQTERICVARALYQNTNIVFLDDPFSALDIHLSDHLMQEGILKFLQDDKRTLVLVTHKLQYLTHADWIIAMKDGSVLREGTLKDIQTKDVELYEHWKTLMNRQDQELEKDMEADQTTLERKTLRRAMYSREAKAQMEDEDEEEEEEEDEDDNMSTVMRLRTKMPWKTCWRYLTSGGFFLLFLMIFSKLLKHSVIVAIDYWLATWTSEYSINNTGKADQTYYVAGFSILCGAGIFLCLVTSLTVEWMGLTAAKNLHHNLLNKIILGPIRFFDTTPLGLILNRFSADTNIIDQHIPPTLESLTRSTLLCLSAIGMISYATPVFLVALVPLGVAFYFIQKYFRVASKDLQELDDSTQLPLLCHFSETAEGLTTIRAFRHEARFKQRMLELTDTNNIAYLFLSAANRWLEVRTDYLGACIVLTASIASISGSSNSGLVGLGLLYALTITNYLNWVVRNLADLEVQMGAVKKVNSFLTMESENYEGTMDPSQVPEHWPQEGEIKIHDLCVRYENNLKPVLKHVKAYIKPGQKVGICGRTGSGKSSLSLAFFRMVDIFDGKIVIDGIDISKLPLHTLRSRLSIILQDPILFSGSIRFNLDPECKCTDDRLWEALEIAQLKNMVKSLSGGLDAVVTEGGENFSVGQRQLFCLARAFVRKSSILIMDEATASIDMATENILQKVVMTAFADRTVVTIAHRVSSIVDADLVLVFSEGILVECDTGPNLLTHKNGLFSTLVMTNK
T1 sequence (O02822 whole entry): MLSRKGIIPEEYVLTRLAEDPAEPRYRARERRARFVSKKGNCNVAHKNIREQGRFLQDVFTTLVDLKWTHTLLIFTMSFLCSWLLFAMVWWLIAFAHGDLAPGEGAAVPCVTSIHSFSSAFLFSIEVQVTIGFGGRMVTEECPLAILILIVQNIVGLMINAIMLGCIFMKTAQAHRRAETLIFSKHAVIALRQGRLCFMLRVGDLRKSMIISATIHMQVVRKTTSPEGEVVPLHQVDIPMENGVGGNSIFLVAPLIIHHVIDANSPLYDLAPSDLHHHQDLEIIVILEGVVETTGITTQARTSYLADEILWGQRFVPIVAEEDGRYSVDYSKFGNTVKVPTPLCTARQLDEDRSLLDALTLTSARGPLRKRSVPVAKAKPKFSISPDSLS
Text: (§1) In the following Examples, ventricular myocytes were isolated from adult rabbit hearts by conventional enzymatic dissociation, according to Liu, Y., et al., “Synergistic modulation of ATP-sensitive K^+ currents by protein kinase C and adenosine: implications for ischemic preconditioning”, Circ. Res., 1996, 78: 443-454, then washed several times with calcium-free solution. […].
(§2) For whole-cell patch recordings, the internal pipette solution contained (in mM): 120 K-glutamate, 25 KCI, 0.5 MgCl2, 10 K-EGTA, 10 HEPES and 1 MgATP (pH 7.2 with KOH). The external solution included (in mM): 140 NaCl, 5 KCI, 1 CaCl2, 1 MgCl2, and 10 HEPES (pH 7.4 with NaOH). Whole-cell currents were elicited every 6 sec from a holding potential of −80 mV by two consecutive steps to −40 mV (for 100 msec) and 0 mV (for 380 msec). Currents at 0 mV were measured 200 msec into the pulse. Endogenous flavoprotein fluorescence was excited using a xenon arc lamp with a bandpass filter centered at 480 nm, but only during the 100 msec step to −40 mV t to minimize photobleaching. Emitted fluorescence was recorded at 530 nm by a photomultiplier tube and digitized (Digidata 1200, Axon Instruments). (See Paucek, P., et al., “Cardioprotective effect of diazoxide and its interaction with mitochondrial KATP: possible mechanism of cardioprotection”, J. Mol Cell Cardiol, 1997, 29: A199(Abstract)). Relative fluorescence was averaged during the excitation window and calibrated using the values after dinitrophenol (DNP) and sodium cyanide (CN) exposure.

[3] = test system: rabbit ventricular myocytes; assay: Simulated ischemia (cell pelleting) and cellular injury, trypan blue; format: cell-based; conditions: for cytotoxicity at 50 µM: Oryctolagus cuniculus, Ventricular myocyte, 50 μM diazoxide, read-out: cells killed (% of viable cells prior to ischemia)
Procedure: In the following Examples, the procedure to determine cell injury was modified from […] al. […]., et al., “An in vitro model of myocardial ischemia utilizing isolated adult rat myocytes”, J. Mol. Cell Cardiol, 1990, 22: 165-181. After cell isolation, cells were washed with incubation buffer (in mM): NaCl 119, NaHCO3 25, KH2PO4 1.2, KCl 4.8, MgSO4 1.2, HEPES 10, glucose 11, and supplemented with creatine, taurine and amino acids (pH 7.4). Calcium was added into the buffer stepwise (0.25 mM every 5 minutes) to a final concentration of 1 mM. An aliquot of each cell suspension (0.5 ml) was placed in a 0.5 ml microcentrifuge tube and centrifuged for 20 seconds into a pellet. Each pellet occupied a volume of about 0.2 ml. Approximately 0.25 ml of excess supernatant was removed to leave a thin fluid layer above the pellet, and 0.2 ml of mineral oil was layered on the top of the pellet to exclude gaseous diffusion. After 60 min and 120 min of pelleting, 5 μl of cell pellet were sampled through the oil layer and mixed with 75 µl of 85 mOsm hypotonic staining solution (in mM): […] Microscopic examination was performed 2-5 min after mixing to determine the permeability of the cells to trypan blue. Cells permeable to trypan blue were counted as dead and expressed as a percentage of the total cells counted (>200 for each sample). The killing of cells by ischemia was quantified as percentage of the vital cells at the beginning of each experiment (78-90% of total, mean=82±1% n=24). The small percentage of cells ( 18%) that were non-viable at the beginning of the experiment were mostly rounded and had been damaged as a known consequence of the enzymatic isolation process. Mitra, R., et al., “A uniform enzymatic method for dissociation of myocytes from hearts and stomachs of vertebrates”, Am. J. Physiol, 1985, 249: […]-[…]. Individual experiments in each of four groups were performed on cells isolated from different hearts. In the control group (Cont), cells were pelleted and sampled at the 60 min and 120 min. For the diazoxide-treated group (Diazo), 50 μM of diazoxide was added into the solution 15 min before the pelleting. In the third group (5-HD), 100 μM of 5-HD was added into the cell suspension 20 min prior to pelleting. Cells in the Diazo+5HD group were treated the same as in the third group except that 50 μM of diazoxide was added into the cell suspension 15 min before pelleting. Once applied, drugs were not washed out, and thus were present throughout the period of simulated ischemia.

[4] = test system: mitochondrial flavoprotein oxidation (mitochondrial KATP channels); assay: Flavoprotein fluorescence measurement of mitochondrial redox state in intact ventricular myocytes; format: cell-based, rabbit
Text: as §1, §2

Question: For `CC1=NS(=O)(=O)c2cc(Cl)ccc2N1` [diazoxide], which “cardioprotective EC25” value (intact hearts) is on record?
Answer: 11 µM

Question: And the “flavoprotein fluorescence, confocal images” value [1]?
Answer: increased fluorescence in strips parallel to the myofibril orientation

Question: And the “activation of IKATP / membrane currents” value ([2]; 100 μM, FIG. 1B)?
Answer: did not activate; also recorded: unchanged

Question: What about the “activation of IKATP” value [2] of the same compound?
Answer: did not activate

Question: What about the cytotoxicity at 50 µM ([3]; 1 h, 60 min simulated ischemia) of the same compound?
Answer: 18 ± 3%

Question: What about the cytotoxicity at 50 µM ([3]; 2 h, 120 min simulated ischemia) of the same compound?
Answer: 23 ± 4%

Question: What about the “protection of ventricular myocytes compared with preconditioning” value ([3]; cellular ischemia model) of the same compound?
Answer: to the same extent as preconditioning

Question: And the “mitochondrial oxidation, % of the DNP value” ([4]; 100 μM, first exposure DIAZO(1), FIG. 3)?
Answer: 48±3%

Question: What about the “oxidation of the flavoproteins (flavoprotein fluorescence)” value ([4]; 100 μM, FIG. 1A) of the same compound?
Answer: induced reversible oxidation

Question: What about the EC50 ([4]; Oryctolagus cuniculus, Ventricular myocyte, FIG. 5, 5-6 cells per point, read-out: EC50 to induce mitochondrial oxidation) of the same compound?
Answer: 27 µM

Question: What about the mitochondrial oxidation ([4]; diazoxide exposure in the same cell as pinacidil) of the same compound?
Answer: 41±5%

Question: What about the “flavoprotein oxidation, % of the DNP value” ([4]; second exposure DIAZO(2) after washout, same cells, FIG. 3) of the same compound?
Answer: 43±5%

Question: What does the source list for `CC(N/C(=N\C#N)Nc1ccncc1)C(C)(C)C` (centres unmarked) [pinacidil]?
Answer: sarcolemmal IKATP ([2]; pinacidil 100 μM, measured at 0 mV, FIG. 6B): 0.74±0.54 nA; mitochondrial oxidation ([4]; pinacidil 100 μM, FIG. 6A): 35±8%

Question: For `COc1ccc(Cl)cc1C(=O)NCCc1ccc(S(=O)(=O)NC(=O)NC2CCCCC2)cc1` [Glybenclamide], which “block of the protection from diazoxide” value ([3]; 1 μM glybenclamide, data not shown) is on record?
Answer: blocked the protection

Question: What does the source list for `CCCCCC(O)CCCC(=O)O.[Na]` (centres unmarked) [5-HD, 5-hydroxydecanoic acid sodium]?
Answer: activation of IKATP [2]: did not activate; block of the protection by diazoxide ([3]; 100 μM 5-HD): completely blocked; attenuation of the oxidative effect of diazoxide ([4]; 100 μM 5-HD in the presence of diazoxide, FIG. 3): about half; block of flavoprotein oxidation induced by diazoxide ([4]; FIG. 2a): reversibly blocks; flavoprotein oxidation, % of the DNP value ([4]; diazoxide in the presence of 500 μM 5-HD, FIG. 3): 8±3%

Reference: US6586241B1, “Methods to identify compounds affecting mitochondria” (Johns Hopkins University, priority 1998, dated 2003)
